# Like-named read-outs stand apart in the source and are kept apart here.
# What was measured:
# A. baumannii J2 = assay: MIC without and with sub-inhibitory polymyxin B (Example 4); type: cell-based, Acinetobacter baumannii; conditions: for MIC without PB/MIC + PB: A. baumannii J2; for MIC: Acinetobacter baumannii
# A. baumannii A390 [1] = assay: Preliminary MBC without and with sub-inhibitory polymyxin B (Example 4); type: cell-based, Acinetobacter baumannii; conditions: Acinetobacter baumannii, A390, A. baumannii A390, +0.06 μg/ml PB, 2nd experiment, read-out: MBC
# In short: (§1)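 Read-out: the minimum concentration at which colonies were reduced by ca. 90% relative to positive control, usually seen as isolated colonies or a clear plate. Plates had been kept 18-20 hours at 37° C beforehand.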
# A. baumannii A473 [2] = assay: as above; type: cell-based, Acinetobacter baumannii; conditions: Acinetobacter baumannii, A473, A. baumannii A473, +0.06 μg/ml PB, 2nd experiment, read-out: MBC
# In short: as §1
# A. baumannii A14 [3] = assay: as above; type: cell-based, Acinetobacter baumannii; conditions: A. baumannii A14, +0.06 μg/ml PB, 2nd experiment
# In short: as §1
# A. baumannii NCTC 13301 [4] = assay: as above; type: cell-based, Acinetobacter baumannii; conditions: Acinetobacter baumannii
# In short: as §1
# A. baumannii A472 [5] = assay: as above; type: cell-based, Acinetobacter baumannii; conditions: Acinetobacter baumannii, preliminary MBC
# A. baumannii A472 [6] = assay: MIC without and with sub-inhibitory polymyxin B (Example 4); type: cell-based, Acinetobacter baumannii; conditions: for MIC: Acinetobacter baumannii
# A. baumannii ATCC 19606 [7] = assay: Preliminary MBC without and with sub-inhibitory polymyxin B (Example 4); type: cell-based, Acinetobacter baumannii; conditions: Acinetobacter baumannii
# A. baumannii A473 [8] = assay: MIC without and with sub-inhibitory polymyxin B (Example 4); type: cell-based, Acinetobacter baumannii; conditions: A. baumannii A473; +0.06 μg/ml PB; 2nd experiment
# A. baumannii A401 [9] = assay: as above; type: cell-based, Acinetobacter baumannii; conditions: for MIC: Acinetobacter baumannii
# A. baumannii A489 [10] = assay: Preliminary MBC without and with sub-inhibitory polymyxin B (Example 4); type: cell-based, Acinetobacter baumannii; conditions: Acinetobacter baumannii, preliminary MBC
# A. baumannii A329 [11] = assay: as above; type: cell-based, Acinetobacter baumannii; conditions: Acinetobacter baumannii, A329, A. baumannii A329, +0.06 μg/ml PB, 2nd experiment, read-out: MBC
# A. baumannii A401 [12] = assay: as above; type: cell-based, Acinetobacter baumannii; conditions: Acinetobacter baumannii
# A. baumannii A387 [13] = assay: MIC without and with sub-inhibitory polymyxin B (Example 4); type: cell-based, Acinetobacter baumannii; conditions: for MIC without PB/MIC + PB: A. baumannii A387
# A. baumannii A329 [14] = assay: as above; type: cell-based, Acinetobacter baumannii; conditions: +0.06 μg/ml PB, 2nd experiment
# A. baumannii NCTC 13301 [15] = assay: as above; type: cell-based, Acinetobacter baumannii
# A. baumannii A14 [16] = assay: as above; type: cell-based, Acinetobacter baumannii; conditions: 2nd experiment
# [17] = tested on: strains of A. baumannii and one strain of Acinetobacter sp.; assay: MIC with sub-inhibitory concentrations (0.25x MIC) of polymyxin B, panel of Acinetobacter strains (Example 4); type: cell-based
# A. baumannii ATCC 19606 [18] = assay: MIC without and with sub-inhibitory polymyxin B (Example 4); type: cell-based, Acinetobacter baumannii; conditions: for MIC without PB/MIC + PB: A. baumannii ATCC 19606
# A. baumannii A489 [19] = assay: as above; type: cell-based, Acinetobacter baumannii; conditions: for MIC without PB/MIC + PB: A. baumannii A489; for MIC: Acinetobacter baumannii
# A. baumannii A390 [20] = assay: as above; type: cell-based, Acinetobacter baumannii; conditions: +0.06 μg/ml PB, 2nd experiment
# [21] = tested on: Acinetobacter sp. (H064200250); assay: as above; type: cell-based; conditions: for MIC: Acinetobacter
# A. baumannii NCTC 13301 [22] = assay: as above; type: cell-based, Acinetobacter baumannii; conditions: +[…] PB, 2nd experiment
# A. baumannii A387 [23] = assay: Preliminary MBC without and with sub-inhibitory polymyxin B (Example 4); type: cell-based, Acinetobacter baumannii; conditions: Acinetobacter baumannii
# [24] = ratio, PB 0.06 μg/ml, 1st experiment
# [25] = A. baumannii A14, +0.06 μg/ml PB
smiles,measurement,setting,value
"Cc1c(-c2ccc(CN)c(F)c2)ccn2c(=O)c(C(=O)O)cc(C3CC3)c12 [Compound 4, 8-(3-fluoro-4-aminomethyl-phenyl)-1-cyclopropyl-9-methyl-4-oxo-quinolizine-3-carboxylic acid]",MIC without PB/MIC + PB,"A. baumannii J2; +[…] PB, 2nd experiment",128
same,MIC without PB/MIC + PB,"A. baumannii J2; ratio, PB […], 1st experiment",4
same,MIC,"A. baumannii J2; J2, A. baumannii J2, +[…] PB, 2nd experiment, read-out: MIC",0.06 mg/L
same,MIC,"A. baumannii J2; J2, read-out: MIC +[…] PB, A. baumannii J2, +[…] polymyxin B, 1st experiment",2 mg/L
same,MBC,A. baumannii A390 [1],0.5 mg/L
same,MBC,A. baumannii A473 [2],0.25 mg/L
same,MBC,A. baumannii A14 [3],8 mg/L
same,MBC,"A. baumannii NCTC 13301 [4]; NCTC13301, A. baumannii NCTC 13301, +[…] PB, preliminary MBC, 2nd experiment, read-out: MBC",0.25 mg/L
same,MBC,"A. baumannii NCTC 13301 [4]; NCTC13301, read-out: MBC +[…] PB",0.5 mg/L
same,MBC,"A. baumannii A472 [5]; A472, A. baumannii A472, +[…] PB, 2nd experiment, read-out: MBC",0.125 mg/L
same,MBC,"A. baumannii A472 [5]; A472, read-out: MBC +[…] PB, A. baumannii A472, +[…] polymyxin B, 1st experiment",1 mg/L
same,MIC without PB/MIC + PB,"A. baumannii A472 [6]; A. baumannii A472, ratio, PB […], 1st experiment",4
same,MIC,"A. baumannii A472 [6]; A472, A. baumannii A472, +[…] PB, 2nd experiment, read-out: MIC",0.125 mg/L
same,MIC,"A. baumannii A472 [6]; A472, read-out: MIC +[…] PB, A. baumannii A472, +[…] polymyxin B, 1st experiment",1 mg/L
same,MBC,"A. baumannii ATCC 19606 [7]; ATCC19606, A. baumannii ATCC 19606, +0.06 μg/ml PB, 2nd experiment, read-out: MBC",≤ 0.03 mg/L
same,MBC,"A. baumannii ATCC 19606 [7]; ATCC19606, read-out: MBC +0.06 μg/ml PB, A. baumannii ATCC 19606, +0.06 μg/ml polymyxin B, 1st experiment",0.06 mg/L
same,MIC,A. baumannii A473 [8],0.25 mg/L
same,MIC without PB/MIC + PB,A. baumannii A473 [8],32
same,MIC without PB/MIC + PB,"A. baumannii A401 [9]; A baumannii A 401, ratio, PB 0.06 μg/ml, 1st experiment",4
same,MIC,"A. baumannii A401 [9]; A401, A baumannii A 401, +0.06 μg/ml PB, 2nd experiment, read-out: MIC",0.5 mg/L
same,MIC,"A. baumannii A401 [9]; A401, read-out: MIC +0.06 μg/ml PB, A baumannii A 401, +0.06 μg/ml polymyxin B, 1st experiment",4 mg/L
same,MBC,"A. baumannii A489 [10]; A489, A. baumannii A489, +[…] PB, 2nd experiment, read-out: MBC",0.06 mg/L
same,MBC,"A. baumannii A489 [10]; A489, read-out: MBC +[…] PB, A. baumannii A489, +[…] polymyxin B, 1st experiment",1 mg/L
same,MBC,A. baumannii A329 [11],8 mg/L
same,MBC,"A. baumannii A401 [12]; A401, A baumannii A 401, +0.06 μg/ml PB, 2nd experiment, read-out: MBC",0.5 mg/L
same,MBC,"A. baumannii A401 [12]; A401, read-out: MBC +0.06 μg/ml PB, A baumannii A 401, +0.06 μg/ml polymyxin B, 1st experiment",2 mg/L
same,MIC without PB/MIC + PB,"A. baumannii A387 [13]; +0.06 μg/ml PB, 2nd experiment",8
same,MIC without PB/MIC + PB,A. baumannii A387 [13]; [24],2
same,MIC,"A. baumannii A387 [13]; Acinetobacter baumannii, A387, read-out: MIC +0.06 μg/ml PB, A. baumannii A387, +0.06 μg/ml polymyxin B, 1st experiment",1 mg/L
same,MIC without PB/MIC + PB,A. baumannii A329 [14]; A. baumannii A329,2
same,MIC,"A. baumannii A329 [14]; Acinetobacter baumannii, A329, A. baumannii A329, read-out: MIC",8 mg/L
same,MIC without PB/MIC + PB,"A. baumannii NCTC 13301 [15]; A. baumannii NCTC 13301, ratio, PB […], 1st experiment",8
same,MIC,"A. baumannii NCTC 13301 [15]; Acinetobacter baumannii, NCTC13301, read-out: MIC +[…] PB",1 mg/L
same,MIC,A. baumannii A14 [16]; [25],2 mg/L
same,MIC without PB/MIC + PB,A. baumannii A14 [16]; [25],16
same,MIC,"A. baumannii A14 [16]; Acinetobacter baumannii, A14, A. baumannii A14, without PB, read-out: MIC",32 mg/L
same,"Range ratios MIC without PB/MIC with PB Oct. 1, 2008 n = 8",[17]; 1st experiment,2-8
same,"MIC range with PB (0.25x MIC) Oct. 1, 2008 n = 8","[17]; 1st experiment, […] polymyxin B, ATCC 19606, A329, A390 and A473 not taken",1 to 8 mg/L
same,"Range ratios MIC without PB/MIC with PB Oct. 14, 2008 n = 11",[17]; 2nd experiment,1-16
same,"MIC range with PB (0.25x MIC) Oct. 14, 2008 n = 11","[17]; 2nd experiment, 0.06 μg/ml polymyxin B, all strains except the ATCC strain",0.5 to 8 mg/L
same,MIC without PB/MIC + PB,"A. baumannii ATCC 19606 [18]; +0.06 μg/ml PB, 2nd experiment",≥16
same,MIC without PB/MIC + PB,A. baumannii ATCC 19606 [18]; [24],2
same,MIC,"A. baumannii ATCC 19606 [18]; Acinetobacter baumannii, ATCC19606, read-out: MIC +0.06 μg/ml PB, A. baumannii ATCC 19606, +0.06 μg/ml polymyxin B, 1st experiment",0.125 mg/L
same,MIC without PB/MIC + PB,"A. baumannii A489 [19]; +[…] PB, 2nd experiment",≥512
same,MIC without PB/MIC + PB,"A. baumannii A489 [19]; ratio, PB […], 1st experiment",8
same,MIC,"A. baumannii A489 [19]; A489, A. baumannii A489, +[…] PB, 2nd experiment, read-out: MIC",≤ 0.03 mg/L
same,MIC,"A. baumannii A489 [19]; A489, read-out: MIC +[…] PB, A. baumannii A489, +[…] polymyxin B, 1st experiment",1 mg/L
same,MIC without PB/MIC + PB,A. baumannii A390 [20]; A. baumannii A390,64
same,MIC,"A. baumannii A390 [20]; Acinetobacter baumannii, A390, A. baumannii A390, read-out: MIC",0.5 mg/L
same,MIC without PB/MIC + PB,"[21]; Acinetobacter spp. H064200250 (OXA51), +[…] PB, 2nd experiment",64
same,MIC without PB/MIC + PB,"[21]; Acinetobacter spp. H064200250, ratio, PB […], 1st experiment",4
same,MIC,"[21]; Acinetobacter spp. H064200250 (OXA51), +[…] PB, 2nd experiment, read-out: MIC",0.5 mg/L
same,MIC,"[21]; read-out: MIC +[…] PB, Acinetobacter spp. H064200250, +[…] polymyxin B, 1st experiment",4 mg/L
same,MIC without PB/MIC + PB,A. baumannii NCTC 13301 [22]; A. baumannii NCTC 13301,128
same,MIC,"A. baumannii NCTC 13301 [22]; Acinetobacter baumannii, NCTC13301, A. baumannii NCTC 13301, read-out: MIC",0.25 mg/L
same,MBC,"A. baumannii A387 [23]; A387, A. baumannii A387, +0.06 μg/ml PB, 2nd experiment, read-out: MBC",0.5 mg/L
same,MBC,"A. baumannii A387 [23]; A387, read-out: MBC +0.06 μg/ml PB, A. baumannii A387, +0.06 μg/ml polymyxin B, 1st experiment",1 mg/L
